Target: T1, Prostaglandin G/H synthase 1 (Ovis aries) (UniProt P05979)
T1 sequence (whole entry): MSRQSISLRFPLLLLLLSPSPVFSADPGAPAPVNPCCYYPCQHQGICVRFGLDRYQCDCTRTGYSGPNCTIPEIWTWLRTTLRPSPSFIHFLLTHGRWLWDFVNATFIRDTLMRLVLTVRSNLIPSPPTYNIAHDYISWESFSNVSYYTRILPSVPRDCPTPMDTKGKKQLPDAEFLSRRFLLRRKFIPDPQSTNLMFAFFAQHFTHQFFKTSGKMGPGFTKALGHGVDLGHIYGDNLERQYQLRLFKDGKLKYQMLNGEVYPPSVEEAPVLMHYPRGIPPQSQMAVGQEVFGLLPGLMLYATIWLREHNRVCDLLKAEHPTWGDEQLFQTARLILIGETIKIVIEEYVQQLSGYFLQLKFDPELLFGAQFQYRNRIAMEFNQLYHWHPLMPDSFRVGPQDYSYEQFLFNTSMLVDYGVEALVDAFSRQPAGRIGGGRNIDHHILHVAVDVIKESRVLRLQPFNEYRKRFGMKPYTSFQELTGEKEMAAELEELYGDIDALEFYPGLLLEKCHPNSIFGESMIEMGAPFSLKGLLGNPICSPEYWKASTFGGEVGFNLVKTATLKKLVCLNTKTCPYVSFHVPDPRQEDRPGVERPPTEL
Settings: 1 uM
Description: Binding affinity to ovine COX1 at 1 uM to 25 uM

Kinact [µM] | SMILES
4 | CC[C@@H](CO)NC(=O)Cc1c(C)n(C(=O)c2ccc(Cl)cc2)c2ccc(OC)cc12
2.3 | CC[C@H](CO)NC(=O)Cc1c(C)n(C(=O)c2ccc(Cl)cc2)c2ccc(OC)cc12

Reference: ChEMBL document CHEMBL1147054, “Structural basis of enantioselective inhibition of cyclooxygenase-1 by S-alpha-substituted indomethacin ethanolamides” (J Biol Chem, 2007)
